Read-outs that look alike come from different tables or passages of the source.
What was measured:
Type in all cases: cell-based, human
HUVECs [1] = experiment: HUVEC motility (modified Boyden chamber chemotaxis); conditions: 18 hr preincubation
Procedure: (§1) Human umbilical vein endothelial cells (H 930) were generously supplied by Dr. Tom Maciag, American Red Cross (Gaithersburg, Md., USA) and were used between passages 9 and 14 to avoid senescence. HUVECs were grown on fibronectin-coated tissue culture plastic (200 μg/150 mm dish) in complete medium (Medium 199 (M-199) containing 5 U/mL preservative-free heparin, 25.5 μg/mL ECGS, 10% fetal bovine serum and 100 U/mL penicillin, 100 μg/mL streptomycin, and 0.25 μg/mL fungizone).
A modified Boyden chamber system was used to determine whether compound 1 could modulate the chemotactic stimulation of endothelial cells by fibronectin, laminin, type IV collagen or thrombospondin. The particular system used has been described for tumor cell motility. See, Minniti, et al., J. Biol. Chem. 267:9000-9004 (1992). Modifications were made as to cell number, membrane pore size, and time of incubation were tested to determine optimal conditions for the HUVECs.
HUVECs were pretreated as described above for adhesion and resuspended at 2×10^6 cells/mL in M-199 containing 0.1% bovine serum albumin. Cells were seeded in the upper compartment of the chamber separated from the lower compartment by a gelatin-coated Nucleopore filter with 8μ pores. Laminin (100 μg/mL), fibronectin (30 μg/mL), type IV collagen (100 μg/mL) or thrombospondin (20 μg/mL) were diluted from stock solutions into control medium (M-199 plus 0.1% BSA) and were used as chemoattractants in the lower chamber. HUVECs were incubated with DMSO control (0.1%) or compound 1 (0.1-10 μM) for 18 hr prior to the motility assay. Compound 1 and DMSO were maintained with the cells throughout the experiment. Assays were incubated at 37° C. for 2 hours after which the filters were removed, fixed, and stained. Cell migration was quantited by counting five high power fields in triplicate pellets of migrated cells. Results are expressed as percentage of control cell migration (x±SEM, n=3).

HUVECs [2] = experiment: HUVEC proliferation (crystal violet), 10% serum with ECGS; conditions: for IC50: Homo sapiens, HUVEC, 10% serum with ECGS, n=3
Procedure: as §1
The effect of compound 1 on HUVEC proliferation was examined over a 5 day period of culture. Cell monolayers were incubated with increasing concentrations of compound 1 and evaluated incrementally for growth inhibition.
Growth inhibition of HUVECs by compound 1 was measured by crystal violet nuclear stain. Briefly, 50,000 cells were seeded per well in 24 well plates using complete medium in the presence of increasing concentrations of compound 1 (0.01-10 μM) or DMS0 vehicle control (0.1%) and cultures were incubated for 24-120 hours. After incubation, cells were washed carefully with Dulbecco's phosphate-buffered saline (DPBS), fixed and stained with 0.5% crystal violet in 20% methanol. Excess stain was removed with water, the cell monolayers were air-dried, and then bound stain was eluted with a 1:1 solution of 0.1N sodium citrate (pH 4.2): 100% ethanol. Optical density of the eluted samples was determined at 540 nm and the results were expressed as percent of DMSO control cell growth. Data are expressed as percentage of control value and are presented as mean±SEM (n=3).

MMP-2 = experiment: Northern blot analysis of MMP-2 expression in HUVECs; conditions: 24 hr; for inhibition at 10 µM: Homo sapiens, HUVEC
Procedure: as §1
HUVECs were grown to confluence as described. Fresh complete medium with test compounds was added to confluent cells for an additional 24 hr incubation. bFGF (10 ng/mL), and/or compound 1 (10 μM) or DMSO control (0.1%) were added as indicated below. Total RNA was isolated by the guanidine isothiocyanate/CsCl method. Aliquots of RNA (7.5 μg) were separated on 1% agarose/formaldehyde gels, passively transferred to GeneScreen Plus membrane in 20X SSC, then cross-linked with ultraviolet light. Blots were prewashed for 1 hr at 42° C. in 1M NaCl, 10 mM Tris, 1 mM EDTA, 0.1% SDS and then hybridized overnight at 42° C. with a formamide-containing buffer (hybridization buffer final: 50% formamide, 4X SSC, 10 mM Tris pH 7.5, IX Denhardt solution, 0.2% SDS, 125 μg/ml salmon sperm DNA) with a random-primed 300 bp insert for MMP-2 (gift of Dr. William Stetler-Stevenson, Laboratory of Pathology, NCI). Blots were washed under stringent conditions then exposed to film. After removal of MMP-2 probe, blots were rehybridized with β-actin probe for quantitation of the RNA load. Results were quantitated by densitometric evaluation of the autoradiographs.
Lane 1 corresponds to the mRNA from HUVECs treated with DMSO (control). Lanes 2-4 show the mRNA isolated from HUVECs treated with compound 1 (10 μM) alone, compound 1 (10 μM) and bFGF (10 ng/mL), bFGF (10 ng/mL) alone, respectively.

[3] = bFGF 10 ng/mL + Compound 1 10 μM

SMILES: NC(=O)c1nnn(Cc2cc(Cl)c(C(=O)c3ccc(Cl)cc3)c(Cl)c2)c1N [Compound 1, 5-amino-1-(4-(4-chlorobenzoyl)-3,5-dichlorobenzyl)1,2,3-triazole-4-carboxamide]
- inhibition of HUVEC motility towards type IV collagen (in words) (HUVECs [1]; 1 μM, P2, 0.018): statistically significant dose-dependent inhibition
- inhibition of HUVEC motility towards laminin (in words) (HUVECs [1]; 1 μM, P2<0.009): statistically significant dose-dependent inhibition
- inhibition of HUVEC motility towards all attractants (fibronectin, laminin, type IV collagen and thrombospondin) (in words) (HUVECs [1]; 10 μM, p2<0.001): statistically significant dose-dependent inhibition
- inhibition of endothelial cell proliferation (in words) (HUVECs [2]; 0.01-10 μM, 24, 72 and 120 hrs): dose-dependent but not time-dependent inhibition
- IC50 (HUVECs [2]; 24 h, 1 day of culture): 1.31 ± 0.03 µM
- IC50 (HUVECs [2]; 72 h, 3 days of culture): 2.14 ± 0.03 µM
- IC50 (HUVECs [2]; 120 h, 5 days of culture): 2.08 ± 0.01 µM
- Corrected values (MMP-2 mRNA corrected for loading) (MMP-2; Control + Compound 1, 10 μM): 0.30
- MMP-2 (densitometer) (MMP-2; Control + Compound 1, 10 μM): 38 Densitometer units
- inhibition at 10 µM (MMP-2; no bFGF, vs control, read-out: % Inhibition of native MMP-2 expression): 86%
- inhibition at 10 µM (MMP-2; bFGF 10 ng/mL, vs bFGF, read-out: % Inhibition of MMP-2 expression in presence of bFGF): 62%
- Corrected values (MMP-2 mRNA corrected for loading) (MMP-2; [3]): 0.14
- MMP-2 (densitometer) (MMP-2; [3]): 31 Densitometer units

Source: patent US5744492A, “Method for inhibiting angiogenesis” (United States of America, priority 1994, dated 1998)
